Source: ChEMBL document CHEMBL1156245, “Structure-activity relationships for substrate-based inhibitors of human complement factor B” (J Med Chem, 2009)
Peptide text beside a SMILES is read from it.

Columns and labels:
[1] = Inhibition of cobra C3/C5 convertase assessed as inhibition of C3a and C5a fragment formation; parameters: species or system Naja naja
Complement factor B [2] = target: T1, Complement factor B (Homo sapiens, UniProt P00751); assay: Inhibition of human complement factor B treated for 5 mins before addition of substrate Ac-SHLGLAR-pNA at pH 9.5 by chromogenic assay
Complement factor B [3] = target: T1, Complement factor B; assay: Inhibition of human C3 convertase assessed as inhibition of C3a and C3b fragment production at pH 7.4 after 30 mins by SDS-PAGE
[4] = Inhibition of alternative complement system-mediated hemolysis of rabbit erythrocytes assessed as haemoglobin release after 30 mins by UV/vis spectrophotometry; parameters: species or system Oryctolagus cuniculus
Complement factor B [5] = target: T1, Complement factor B; assay: Inhibition of human C3 convertase assessed as inhibition of C3a and C3b fragment production at pH 7.4 after 30 mins by SDS-PAGE using 7% (w/v) polyacrylamide gel
[6] = Inhibition of human alternative complement system-mediated membrane attack complex formation by ELISA
Complement factor B [7] = target: T1, Complement factor B; assay: Inhibition of human complement factor B at pH 9.5 by chromogenic assay
Complement factor B [8] = target: T1, Complement factor B; assay: Inhibition of human C3/C5 convertase assessed as inhibition of C3 cleavage
[9] = Metabolic stability in human serum assessed as compound remaining at 1 mM after 3 hrs by LC-MS analysis; format: ADME, cell-free; conditions: read-out: Stability
[10] = Solubility in water; format: physicochemical; conditions: buffer

T1 sequence (P00751 whole entry, the tested form may be a part): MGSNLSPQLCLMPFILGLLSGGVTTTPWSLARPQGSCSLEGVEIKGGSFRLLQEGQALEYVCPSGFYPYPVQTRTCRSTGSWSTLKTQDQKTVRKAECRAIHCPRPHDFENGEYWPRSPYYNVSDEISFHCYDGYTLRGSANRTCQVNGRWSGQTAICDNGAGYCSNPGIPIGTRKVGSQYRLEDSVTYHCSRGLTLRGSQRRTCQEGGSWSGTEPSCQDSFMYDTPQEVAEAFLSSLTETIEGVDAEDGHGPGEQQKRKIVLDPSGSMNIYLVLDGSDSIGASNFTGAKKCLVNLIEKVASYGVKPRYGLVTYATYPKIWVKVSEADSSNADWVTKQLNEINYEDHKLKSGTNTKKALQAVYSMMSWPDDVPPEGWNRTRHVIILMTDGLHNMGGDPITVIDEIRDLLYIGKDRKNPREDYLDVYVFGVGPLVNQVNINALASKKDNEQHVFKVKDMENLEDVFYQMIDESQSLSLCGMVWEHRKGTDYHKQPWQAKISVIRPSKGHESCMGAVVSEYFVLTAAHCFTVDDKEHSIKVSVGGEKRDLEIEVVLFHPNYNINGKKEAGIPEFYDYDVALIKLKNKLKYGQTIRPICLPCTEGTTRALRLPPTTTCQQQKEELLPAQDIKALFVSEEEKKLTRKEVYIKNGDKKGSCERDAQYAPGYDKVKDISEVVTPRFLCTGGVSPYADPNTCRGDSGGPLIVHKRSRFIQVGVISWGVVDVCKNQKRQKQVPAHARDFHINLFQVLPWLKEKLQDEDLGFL

In the case of `N=C(N)Nc1ccc(C(=O)Oc2ccc3cc(C(=N)N)ccc3c2)cc1`, the IC50 [1] is reported as 4 µM.

In the case of `CC(=O)N[C@@H](CC(C)C)C(=O)N[C@@H](CC(C)C)C(=O)N[C@@H](C)C(=O)N[C@@H](CCCN=C(N)N)C(=O)O` (Ac-LLAR-OH), the IC50 (Complement factor B [2]) is reported as 12 µM.

In the case of `CC(C)C[C@H](NC(=O)[C@H](CCC1CCCCC1)NC(=O)[C@H](CC(C)C)NC(=O)[C@H](Cc1cnc[nH]1)NC(=O)[C@@H](N)CO)C(=O)N[C@@H](C)C(=O)N[C@@H](CCCN=C(N)N)C(=O)O` (HELM PEPTIDE1{S.H.L.[O=C([C@H](CCC1CCCCC1)N[*:1])[*:2]].L.A.R}$$$$V2.0), the IC50 (Complement factor B [2]) is reported as 5 µM.

In the case of `CC(=O)N[C@@H](CCCNC(=N)N)C(=O)N[C@@H](CC(C)C)C(=O)N[C@@H](CC(C)(C)C)C(=O)N[C@@H](CC(C)C)C(=O)N[C@@H](C)C(=O)N[C@@H](CCCNC(=N)N)C(=O)O` (HELM PEPTIDE1{[ac].R.L.[CC(C)(C)C[C@H](N[*:1])C(=O)[*:2]].L.A.R}$$$$V2.0), the IC50 (Complement factor B [3]) is reported as 10 µM, the IC50 [4] is reported as 9.7 µM and the inhibition (Complement factor B [5]) is reported as “Dose-dependent effect”. The IC50 [6] was 0.32 µM and the IC50 (Complement factor B [2]) was 0.25 µM.

`CC(=O)N[C@@H](CO)C(=O)N[C@@H](Cc1cnc[nH]1)C(=O)N[C@@H](CC(C)C)C(=O)NCC(=O)N[C@@H](CC(C)C)C(=O)N[C@@H](C)C(=O)N[C@@H](CCCN=C(N)N)C(=O)Nc1ccc([N+](=O)[O-])cc1` (HELM PEPTIDE1{[ac].S.H.L.G.L.A.R.[O=[N+]([O-])c1ccc(N[*:1])cc1]}$$$$V2.0) showed an IC50 (Complement factor B [7]) of 19 µM.

For `CCCC[C@H](NC(=O)[C@H](Cc1cnc[nH]1)NC(=O)[C@H](CO)NC(C)=O)C(=O)N[C@@H](CC(C)C)C(=O)N[C@@H](CC(C)C)C(=O)N[C@@H](C)C(=O)N[C@@H](CCCNC(=N)N)C(=O)O` (HELM PEPTIDE1{[ac].S.H.[Nle].L.L.A.R}$$$$V2.0), the IC50 (Complement factor B [2]) was 5 µM.

For `CC(=O)N[C@@H](Cc1ccc(F)cc1)C(=O)N[C@@H](Cc1cnc[nH]1)C(=O)N[C@@H](CC(C)C)C(=O)NCC(=O)N[C@@H](CC(C)C)C(=O)N[C@@H](C)C(=O)N[C@@H](CCCN=C(N)N)C(=O)O` (HELM PEPTIDE1{[ac].[O=C([C@H](Cc1ccc(F)cc1)N[*:1])[*:2]].H.L.G.L.A.R}$$$$V2.0), the IC50 (Complement factor B [2]) was 13 µM.

Compound `CC[C@H](C)[C@H](N)C(=O)N[C@H]1CSSC[C@@H](C(=O)N[C@H](C(N)=O)[C@@H](C)O)NC(=O)[C@H](CCCN=C(N)N)NC(=O)[C@H](Cc2cnc[nH]2)NC(=O)[C@H](Cc2cnc[nH]2)NC(=O)CNC(=O)[C@H](Cc2c[nH]c3ccccc23)NC(=O)[C@H](CC(=O)O)NC(=O)[C@H](CCC(N)=O)NC(=O)[C@H](C(C)C)NC(=O)[C@H](C(C)C)NC1=O` [COMPSTATIN] has an IC50 (Complement factor B [8]) of 12 µM.

For Ac-FHLGLAR-OH, the IC50 (Complement factor B [2]) was 23 µM.

Work on Ac-HLLLAR-OH yielded an IC50 (Complement factor B [2]) of 3 µM.

For Ac-LLLAR-OH, the IC50 (Complement factor B [2]) was 3 µM.

For Ac-RLLLAR-OH [listing 1 of 2 here], the IC50 (Complement factor B [3]) was 50 µM, the remaining at 3 h, 1000 µM [9] was 80% and the solubility [10] was “Soluble”. The IC50 (Complement factor B [2]) was 0.6 µM.

For Ac-RLLLAR-OH [listing 2 of 2 here], the IC50 [4] was 20.8 µM, the inhibition (Complement factor B [5]) was “Dose-dependent effect” and the IC50 [6] was 1 µM.

Work on Ac-RLLLGR-OH yielded an IC50 (Complement factor B [2]) of 7 µM.

Compound Ac-SHLGLAR-OH has a remaining at 3 h, 1000 µM [9] of 80%, an IC50 [4] of 243 µM and an IC50 [6] of 21.1 µM. The IC50 (Complement factor B [2]) was 19 µM.

For Ac-SHLLLAR-OH, the IC50 (Complement factor B [2]) was 4 µM.
